According to patent US11332463B2, “Spiropiperidine allosteric modulators of nicotinic acetylcholine receptors” (Merck Sharp & Dohme Corp., priority 2018, dated 2022):
Read-outs that look alike come from different tables or passages of the source.

Molecular target: T1, human α7 nicotinic acetylcholine receptor (HEK cell line stably expressing human RIC-3 and human α7) (Homo sapiens, UniProt P36544)
T1 construct: host or cells: HEK cell line (PrecisION hnAChR α7/RIC-3)
Assay: Automated patch-clamp electrophysiology functional assay (Assay A), IonFlux HT, whole-cell population patch
Format: cell-based
Experimental: The α7 nAChR positive allosteric modulator (PAM) activity of the present compounds may be tested using assays known in the art. […] The assay was performed using the IonFlux HT in a whole-cell, population patch configuration. See Golden et al. Assay Drug Dev. Technol. […] The compounds were assessed for their ability to modulate the function of the human 7 nAChR stably expressed in a HEK cell line both in the presence, and in the absence of the natural 7 agonist acetylcholine. By performing a series of such measurements at different concentrations, the effective concentration of the 7 nAChR PAMs (EC50) was determined. See Spencer et al. Assay Drug Dev. Technol.
Direct activation of α7 (agonism), and potentiation of acetylcholine-evoked 7 currents was determined as follows:
Automated patch-clamp electrophysiology was performed using the IonFlux HT (Fluxion Biosciences Inc., San Francisco, Calif.) in the whole-cell, population patch configuration. Test compounds were assessed for their ability to modulate the function of the α7 nicotinic acetylcholine receptor both in the presence, and in the absence of the natural α7 agonist acetylcholine. […] Immediately prior to assay, cells were detached by first aspirating growth media, rinsing with Dulbecco's phosphate buffered saline, and then adding 10 mL of Accutase (Innovative Cell Technologies, San Diego, Calif.) to the flask and then incubating at 37° C. for 5 minutes. Detached cells were then recovered by the addition of 40 mL of CHO-serum-free media supplemented with 25 mM HEPES, and rocked gently in a 50 mL conical tube for 20 minutes prior to patch-clamp assay. After recovery, cells were pelleted by centrifugation at 1,000 RPM for 1 minute in a compact bench top centrifuge; recovery media was aspirated and cells were resuspended in external recording solution (150 mM NaCl, 5 mM KCl, 2 mM CaCl2), 1 mM MgCl2, 10 mM HEPES, 12 mM dextrose) to a density of 5.0×10^6 cells/mL. The cell suspension was added to the cell inlet wells on an IonFlux HT population patch plate which had previously been rinsed and primed with deionized H2O. Test compounds were serially diluted in DMSO and then resuspended to the final test concentration in external recording solution, with, or without 40 μM acetylcholine added to the external recording solution; test compounds were then transferred to the IonFlux HT population patch plate. Internal recording solution (110 mM TrisPO4, 28 mM TrisBase, 0.1 mM CaCl2, 2 mM MgCl2, 11 mM EGTA, 4 mM MgATP) was added to the internal recording solution inlet wells on the IonFlux HT patch plate previously loaded with cells and test compounds, and the plate loaded into the IonFlux HT instrument. A protocol was executed on the IonFlux HT to trap the cells, break into the cells, and establish the whole-cell recording configuration; cells were voltage-clamped at a holding potential of −60 mV for the duration of the experiment, all experiments were conducted at room temperature, and the IonFlux HT injection pressure was 8 psi for solution applications. Upon establishing the whole-cell configuration, external recording solution was perfused into the recording chambers for 120 seconds and then 40 μM acetylcholine was applied for 1 second and immediately washed off with external recording solution for 60 seconds. The 40 μM acetylcholine-evoked α7 current served as the current response to which subsequent test compound effects, in the presence, or in the absence of 40 μM acetylcholine would be quantified relative to. Next, test compounds were evaluated at multiple concentrations for their ability to induce, or modulate 7 current responses; three concentrations of test compound were evaluated in ascending dose fashion per recording.

[1] = HEK cells expressing human α7/RIC-3, test compound with or without 40 μM acetylcholine, holding potential −60 mV, room temperature, read-out: α7 nAChR Potency
[2] = automated patch-clamp electrophysiology functional assay (Assay A), read-out: α7 nAChR EC50

T1 sequence (P36544 23-502): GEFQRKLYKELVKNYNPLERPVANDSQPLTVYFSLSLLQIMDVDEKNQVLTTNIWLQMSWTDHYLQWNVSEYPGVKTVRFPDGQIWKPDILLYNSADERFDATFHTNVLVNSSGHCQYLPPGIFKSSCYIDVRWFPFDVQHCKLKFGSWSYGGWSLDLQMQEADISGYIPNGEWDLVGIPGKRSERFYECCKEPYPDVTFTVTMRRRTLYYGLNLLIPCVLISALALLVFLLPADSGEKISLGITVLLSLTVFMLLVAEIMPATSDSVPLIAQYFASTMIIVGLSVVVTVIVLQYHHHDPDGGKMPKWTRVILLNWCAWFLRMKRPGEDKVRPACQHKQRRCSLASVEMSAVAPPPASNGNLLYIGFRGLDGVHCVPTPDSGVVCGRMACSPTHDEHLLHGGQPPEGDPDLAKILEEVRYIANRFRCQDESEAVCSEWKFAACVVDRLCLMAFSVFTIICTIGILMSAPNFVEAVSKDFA

SMILES | EC50 [1] [nM] | EC50 [2] [nM]
COc1ccc(Cl)cc1-c1noc(C2CC23CCN(S(=O)(=O)CC2CCCCO2)CC3)n1 (mixture of isomers) [Example B3] | 500 to 5000 | 1300
CC(C)C1CC(c2nc([C@@H]3CC34CCN(S(N)(=O)=O)CC4)no2)C1 (mixture of isomers) [Example E3] | 500 to 5000 | 1900
COc1ccc(Cl)cc1-c1noc(C2CC23CCN(S(=O)(=O)Cc2ccccn2)CC3)n1 (racemic) [Example B1] | 500 to 5000 | 2300
COc1ccc(Cl)cc1-c1noc(C2CC23CCN(S(=O)(=O)c2ccsc2)CC3)n1 (racemic) [Example B2] | 500 to 5000 | –
COc1ccc(Cl)cc1-c1noc(C2CC23CCN(S(=O)(=O)c2ccn(C)n2)CC3)n1 (racemic) [Example B4] | 500 to 5000 | 3200
COc1ccc(Cl)cc1-c1noc(C2CC23CCN(S(=O)(=O)CCc2ccccc2)CC3)n1 (racemic) [Example B5] | 500 to 5000 | 3000
COc1ccc(Cl)cc1-c1noc(C2CC23CCN(S(=O)(=O)c2cccc4nonc24)CC3)n1 (racemic) [Example B6] | 500 to 5000 | –
COc1ccc(Cl)cc1-c1noc(C2CC23CCN(S(=O)(=O)c2ccc4ncsc4c2)CC3)n1 (racemic) [Example B7] | 500 to 5000 | 3300
COc1ccc(Cl)cc1-c1noc(C2CC23CCN(S(=O)(=O)c2c(O)no[n+]2C)CC3)n1 (racemic) [Example B8] | 500 to 5000 | –
COc1ccc(Cl)cc1-c1noc(C2CC23CCN(C(=O)NC(C)(C)C)CC3)n1 (racemic) [Example B9] | 5000 to 50000 | 5400
COc1ccc(Cl)cc1-c1noc(C2CC23CCN(C(=O)NC2CCCCC2)CC3)n1 (racemic) [Example B10] | 500 to 5000 | –
COc1ccc(Cl)cc1-c1noc(C2CC23CCN(S(=O)(=O)NCc2ccccn2)CC3)n1 (racemic) [Example B11] | 500 to 5000 | 3500
COc1ccc(Cl)cc1-c1noc(C2CC23CCN(C(=O)NCc2ccns2)CC3)n1 (racemic) [Example B12] | 500 to 5000 | 3400
COc1ccc(Cl)cc1-c1noc(C2CC23CCN(C(=O)NCc2ccccc2)CC3)n1 (racemic) [Example B13] | 5000 to 50000 | 5100
COc1ccc(Cl)cc1-c1noc(C2CC23CCN(S(C)(=O)=O)CC3)n1 (racemic) [Example B14] | 500 to 5000 | 1100
CNc1ncccc1-c1noc(C2CC23CCN(S(N)(=O)=O)CC3)n1 (racemic) [Example C1] | 500 to 5000 | 3600
NS(=O)(=O)N1CCC2(CC1)CC2c1nc(-c2ccnc(N3CCCC3)c2)no1 (racemic) [Example C2] | 500 to 5000 | –
Cc1noc(C)c1-c1noc(C2C(F)(F)C23CCN(S(N)(=O)=O)CC3)n1 (racemic) [Example C3] | 100 to 500 | 400
COc1ccc(Cl)cc1-c1noc(C2CC23CCN(S(N)(=O)=O)CC3)n1 (racemic) [Example C13] | 500 to 5000 | –
NS(=O)(=O)N1CCC2(CC1)C(c1nc(-c3ccc(F)cc3C(F)(F)F)no1)C2(Cl)Cl (racemic) [Example C17] | 500 to 5000 | 2700
Cc1ccc(C)c(-c2noc(C3(C)C(F)(F)C34CCN(S(N)(=O)=O)CC4)n2)c1 (racemic) [Example C18] | 500 to 5000 | 1600
COc1ccc(Cl)cc1-c1nc(C2CC23CCN(S(C)(=O)=O)CC3)no1 (single isomer, unassigned) [Example 26, 1-[5-(5-Chloro-2-methoxyphenyl)-1,2,4-oxadiazol-3-yl]-6-(methylsulfonyl)-6-azaspiro[2.5]octane] | 100 to 500 | 480

Next, values leading:

EC50 [1] [nM] | EC50 [2] [nM] | SMILES
500 to 5000 | 3400 | CC1CCCC(c2nc([C@@H]3CC34CCN(S(N)(=O)=O)CC4)no2)C1 (mixture of isomers) [Example E7]
500 to 5000 | 3900 | CC(c1nc([C@@H]2CC23CCN(S(N)(=O)=O)CC3)no1)c1ccccc1Cl (mixture of isomers) [Example E8]
500 to 5000 | 4300 | NS(=O)(=O)N1CCC2(CC1)C[C@H]2c1noc(C2CCCCC23CC3)n1 (mixture of isomers) [Example E11]
500 to 5000 | 1300 | NS(=O)(=O)N1CCC2(CC1)C[C@H]2c1noc(C2CCc3c(F)cccc32)n1 (mixture of isomers) [Example E13]
500 to 5000 | 1500 | NS(=O)(=O)N1CCC2(CC1)C[C@H]2c1noc(C2CC(c3ccccc3)C2)n1 (mixture of isomers) [Example E15]
500 to 5000 | 820 | NS(=O)(=O)N1CCC2(C(F)C1)C(c1nc(-c3conc3C3CC3)no1)C2(F)F (mixture of isomers) [Example I11]
100 to 500 | 430 | Cc1ccc(C)c(-c2nc(C3C(F)(F)C34CCN(S(N)(=O)=O)C(C)C4)no2)c1 (mixture of isomers) [Example K2]
500 to 5000 | 760 | COc1ccc(Cl)cc1-c1nc(C2CC23CCN(S(C)(=O)=O)CC3)no1 (racemic) [Example J1]
500 to 5000 | 1000 | NS(=O)(=O)N1CCC2(CC1)C(c1nsc(N3CCCCC3)n1)C2(F)F (racemic) [Example J2]
500 to 5000 | 750 | NS(=O)(=O)N1CCC2(CC2c2nc(-c3cccc(OC(F)F)c3)no2)C(F)C1 (single isomer, unassigned) [Example I1]
500 to 5000 | 1000 | NS(=O)(=O)N1CCC2(CC2c2nc(-c3cccc(OC(F)F)c3)no2)C(F)C1 (single isomer, unassigned) [Example I2]
500 to 5000 | 2300 | NS(=O)(=O)N1CCC2(CC2c2nc(-c3ccccc3)no2)C(F)(F)C1 (single isomer, unassigned) [Example I3]
500 to 5000 | 1500 | Cc1ccc(C)c(-c2noc(C3CC34CCN(S(N)(=O)=O)CC4(F)F)n2)c1 (single isomer, unassigned) [Example I4]
500 to 5000 | 1200 | CC1CN(S(N)(=O)=O)CCC12CC2c1nc(-c2ccnc(OCC(F)(F)F)c2)no1 (single isomer, unassigned) [Example I5]
500 to 5000 | 840 | NS(=O)(=O)N1CCC2(CC2c2nc(-c3conc3C3CC3)no2)C(F)C1 (single isomer, unassigned) [Example I6]
500 to 5000 | 1500 | NS(=O)(=O)N1CCC2(CC2c2nc(-c3conc3C3CC3)no2)C(F)C1 (single isomer, unassigned) [Example I7]
5000 to 50000 | – | NS(=O)(=O)N1CCC2(CC2c2nc(-c3conc3C3CC3)no2)C(F)C1 (single isomer, unassigned) [Example I8]
500 to 5000 | 3300 | NS(=O)(=O)N1CCC2(CC2c2nc(-c3conc3C3CC3)no2)C(F)C1 (single isomer, unassigned) [Example I9]
500 to 5000 | 3400 | NS(=O)(=O)N1CCC2(CC2c2nc(-c3conc3C3CC3)no2)C(F)C1 (single isomer, unassigned) [Example I10]
500 to 5000 | 600 | NS(=O)(=O)N1CCC2(C(F)C1)C(c1nc(-c3conc3C3CC3)no1)C2(F)F (single isomer, unassigned) [Example I13]
100 to 500 | 330 | NS(=O)(=O)N1CCC2(C(F)C1)C(c1nc(-c3conc3C3CC3)no1)C2(F)F (single isomer, unassigned) [Example I14]
< 100 | 87 | Cc1ccc(C)c(-c2nc(C3C(F)(F)C34C3CCC4CN(S(N)(=O)=O)C3)no2)c1 (single isomer, unassigned) [Example K1]
